Like-named read-outs stand apart in the source and are kept apart here.
What was measured:
E. coli lptD4213 (imp) = assay: Growth assay (OD600) with outer membrane-permeable E. coli lptD4213 (imp); assay type: cell-based; settings: for Δt1/2 (delay in growth compared to DMSO-treated sample): inhibitor c = 50 μM, MOPS medium, 37 °C
Description: Growth assays were performed to assess the in vitro cytotoxicity of peptides. The experiments were executed under sterile conditions. For each assay, 20 mL of fresh MOPS medium was prepared (Teknova Inc MOPS EZ Rich Defined Medium Kit | M2105: 40 mM MOPS, 4 mM Tricine, 0.01 mM FeSO4, 9.5 mM NH4Cl, 0.276 mM […]
MOPS medium with Streptomycin (30 μg/mL) and incubated overnight at 200 rpm and 37°C. The next day, the […]
peptide stocks in DMSO were diluted to four times the desired highest concentration to be measured in MOPS medium. The peptide dilutions were vortexed and briefly centrifuged. 50 μL of MOPS medium was added to each well of a Corning® 96-well Clear Flat Bottom Polystyrene TC-treated Microplate. A twofold dilution series was performed by adding 50 μL of the diluted peptide to the top row, mixing it and taking 50 μL to the next row. At each step the solution was resuspended five times. This was repeated until the last row which was skipped in order to obtain a reference measurement. After 2-3 h, the E.coli lptD4213 (imp) pre-culture was diluted to an OD600 of 0.00005. Then, 50 μL of diluted culture were added to each well and the plate sealed using a lid and parafilm. The OD600 was measured every 15 min over a period of more than 20 h (continuously shaking, 37°C) using a BioTek Synergy H1 plate reader. The obtained data were analyzed and relative growth curves plotted with GraphPad Prism 8. The assays were performed as technical triplicates. A single overnight pre-culture was used to prepare the diluted MOPS culture used in the growth assay. […]

FtsQ(50–276) [1] = biological target: T1, FtsQ(50–276) (Escherichia coli, UniProt P06136); assay type: biochemical, E. coli; design: pET16b FtsQ(50˗276), a His6 fusion; made in house; host or cells: Escherichia coli BL21 DE3
T1 sequence (P06136 50-276): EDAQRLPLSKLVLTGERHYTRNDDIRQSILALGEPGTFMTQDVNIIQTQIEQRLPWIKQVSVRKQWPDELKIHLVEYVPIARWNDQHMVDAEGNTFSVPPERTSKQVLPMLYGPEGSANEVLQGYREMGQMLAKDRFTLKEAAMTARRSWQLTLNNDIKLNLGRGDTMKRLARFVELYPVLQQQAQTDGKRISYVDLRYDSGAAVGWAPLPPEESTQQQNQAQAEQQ
Description: 1.5 Protein modification assay
To determine the reactivity of the different modifiers FtsQ(50˗276) was diluted to a concentration of 100 µM in 20 mM NH4HCO3 buffer (pH 7.6, 150 mM NaCl). The individual peptides were diluted to a concentration of 250 μM in the same buffer. Equal volumes of both solutions were mixed and incubated at 37 °C for the given time period (1 h or 3 h). The reaction was quenched using 5x SDS sample buffer (pH 6.8, 1.875 g TRIS-Cl, 25 mL glycerol, 5 g SDS, 12.5 mL β-mercaptoethanol, 0.5 % bromphenol blue and add 50 mL ddH2O). Samples were heated to 96 °C for 2 min and subsequently analysed by 17 % tris/tricine PAGE (15 min at 90 V and then 3:45 h at 150 V). PageRuler™ Prestained Protein Ladder, 10 to 180 kDa (Thermo Scientific™) was used as a ladder.
Staining was performed using standard Coomassie Staining Solution (40 mL EtOH, 0.3 g Coomassie Blue R250, 0.3 g Coomassie Blue G250, ad 100 mL ddH2O.) and then destained using water.
17 % Tris/Tricine gel (2x):
Running gel: 1.6 mL H2O, 5.5 mL AB-mix, 2.5 mL Buffer A, 100 μL 10% APS, 10 μL 1% TEMED Stacking gel: 2.1 mL H2O, 0.5 mL AB-mix, 0.38 mL Buffer A, 50 μL 10% APS, 5 μL 1% TEMED […]
Buffer A (4x) pH 8.45 3M Tris, 0.3 % SDS; Anode Buffer (10x) pH 8.8, 3M Tris; Cathode buffer (10x) 1M Tris, […]

FtsQ(50–276) [2] = biological target: T1, FtsQ(50–276); settings: tryptic digest, LC-MS/MS
Description: μM CaCl2, 50 mM NaCl, traces of (NH4)6Mo7O24, H3BO3, CoCl2, CuSO4, MnCl2 and ZnSO4, 1.32 mM dibasic anhydrous […], 0.20% glucose, 1.5 mM KOH, 0.199 mM adenine, cytosine, uracil and guanine and 0.01 mM to 10 mM amino acids). A preculture of E.coli lptD4213 (imp) was prepared in 5 mL MOPS medium with streptomycin (30 μg/mL), which was grown overnight at 200 rpm and 37°C. The next day, the overnight culture was diluted a thousandfold and grown up to an OD600 of about 0.5 at 200 rpm and 37°C. After 2-3h, the culture was diluted to an OD600 of 0.1. 10 mM peptide stocks in DMSO were subsequently diluted to 200 μM in MOPS medium. For measuring two time points, a total volume of 110 μL peptide dilution was prepared, for 3 timepoints this was 160 μL. For each time point, 50 μL of diluted peptide was added into an Eppendorf tube, to which 50 μL diluted culture was added (final peptide concentration: 100 μM, starting OD600 = 0.05). The tubes were incubated for either 1,3 or 6 h at 200 rpm and 37°C. Then the cells were fixed using 8.3 μL 37% formaldehyde solution in H2O and incubated for 5 min at 200 rpm and 37°C. Subsequently, the mixture was centrifuged at 500 rpm for 5 min, after which the supernatant was discarded. The pellets were redissolved in 7.5 μL PBS buffer and stored at […]
Microscopy slides were prepared by melting 1% Nobel Agarose in MiliQ water in a microwave. 800 μL was dispersed over a well slide, a microscopy slide was put on top and air bubbles were removed. The agar was allowed to cool for 15 min, after which the microscopy slide was removed. The frozen samples were thawed and 3 μL of each sample was added to separate wells, after which a covering glass was put on top. Using an Olympus IX83 microscope with 100 times magnification ocular and phase contrast (halogen lamp wat approximately 7V), the morphology of the cells was investigated. Pictures were taken and subsequently analyzed with ImageJ and the ObjectJ Cell Counter (https://sils.fnwi.uva.nl/bcb/objectj/examples/CellCounter/cellcounter-md/cellcounter.html, accessed on February 2020).
For the MS/MS experiment samples were prepared as follows. The FtsQ(50˗276) stock solution was diluted to 100 μM and the stock of peptide 24fα was diluted to 250 μM with previously used binding buffer (20 mM NH4HCO3 (pH 7.6), 150 mM NaCl). 10 μL of each diluted stock were merged and the resulting mixture incubated over night at 37 °C. Then the samples were mixed with 5x SDS Sample buffer and 2.5 μL/lane loaded on to a 17% tris/tricine PAGE. The gel was run for 15 min at 90 V and 2h at 150 V.
A container of glass was prepared and extensively washed with soda and water. The gel was placed in the container and incubated in fixing solution (50% EtOH, 3% H3PO4) overnight to remove SDS. The next day, the fixing solution was removed and the gel washed with water a couple of times. Colloidal Coomassie staining solution (34% MeOH, 3 % H3PO4, 150 g (NH4)2SO4/L, 1 g/L G250) was added and the gel stained for 2 d. Then the gel was washed 3x for 30 min with water. Then the bands corresponding to modified and unmodified FtsQ were cut out (1 mm3 pieces) from the gel and transferred to original Eppendorf tubes. The gel pieces were washed with 200 μL water by vortex mixing for 30 s. Then the water was discarded. The gel pieces were then washed with 200 μL MeOH:50 mM NH4HCO3 (1:1 v/v) for 1 min with intermittent vortex mixing. The supernatant was discarded and the procedure repeated once. Then the gel pieces were dehydrated for 5 min in 200 μL of ACN: 50 mM NH4HCO3 (1:1 v/v) with intermittent vortex mixing. The supernatants were discarded and 200 μL of 100 % ACN added, mixed and incubated for 30 s. The samples were dried in a SpeedVac (appr. 5 min). They were then […]
rehydrated in 20 μL of 12 ng/μL Trypsin in 0.01% ProteaseMAX surfactant (Promega): 50 mM NH4HCO3 (Trypsin gold stock 1 μg/μl from Promega, high thermostability) for 10 min (2 μL to 200 μL) and overlayed with […]

[3] = tested on: FtsB-mNG localization in E. coli lptD4213 (imp); assay: Localization of FtsB-mNG (fluorescence microscopy); assay type: cell-based; settings: peptide c = 100 μM, 60 min after addition, MOPS rich medium, 37 °C
Description: were incubated for 1 h at 50 °C. The condensates were collected by centrifuging for 10 s. The digests were mixed for a few seconds and transferred to another tube. 0.5 % TFA was added to inactivate trypsin. The samples were […]
E.coli mutant lptD4213 (imp)
MOPS: MOPS EZ Rich Defined Medium Kit M2105 (Teknova).
At the end of the day, the cells
The next day, the cells were grown and diluted […]
objective. […] In all experiments, the cells […]
ex470/40, dic495LP, em525/50).

[4] = OD600 every 15 min over 22 h, n = 3 technical replicates

A6NELSBTRPG6mFYRL (sidechain bridge or staple) [17fδ, dichlorotriazin-modified 17-mer macrocyclic scaffold]
Δt1/2 (delay in growth compared to DMSO-treated sample) (E. coli lptD4213 (imp); [4]): 5.7 h

QEALEERA6NELSBTRPG6mFYRL (sidechain bridge or staple) [24fδ]
covalent labeling of FtsQ(50–276) (up-shifted band) (FtsQ(50–276) [1]; pH 7.6): showed labeling of FtsQ(50–276) | Δt1/2 (delay in growth compared to DMSO-treated sample) (E. coli lptD4213 (imp); [4]): 4.1 h

QEALEERA6NELSBTRPG6mFYRL (sidechain bridge or staple) [24fβ]
covalent labeling of FtsQ(50–276) (up-shifted band) (FtsQ(50–276) [1]; pH 7.6): showed labeling of FtsQ(50–276) | Δt1/2 (delay in growth compared to DMSO-treated sample) (E. coli lptD4213 (imp); [4]): 1.7 h

A6NELSBTRPG6mFYRL (sidechain bridge or staple) [17fγ, vinyl sulfone-modified 17-mer macrocyclic scaffold]
specificity of FtsQ(50–276) modification (number of up-shifted bands) (FtsQ(50–276) [1]): two up-shifted bands | Δt1/2 (delay in growth compared to DMSO-treated sample) (E. coli lptD4213 (imp); [4]): 4.5 h

QEALEERA6NELSBTRPG6mFYRL (sidechain bridge or staple) [24fγ, vinylsulfon-modified macrocyclic 24f, N-acetylated]
specificity of FtsQ(50–276) modification (number of up-shifted bands) (FtsQ(50–276) [1]): multiple up-shifted bands | covalent labeling of FtsQ(50–276) (up-shifted band) (FtsQ(50–276) [1]; pH 7.6): showed labeling of FtsQ(50–276)

QEALEERA6NELSBTRPG6mFYRL (sidechain bridge or staple) [24fα]
covalent labeling of FtsQ(50–276) (up-shifted band) (FtsQ(50–276) [1]; peptide 125 μM, FtsQ(50–276) 50 μM, 20 mM NH4HCO3 pH 7.6, 150 mM NaCl, 37 °C, 1 or 3 h): showed labeling of FtsQ(50–276) | Δt1/2 (delay in growth compared to DMSO-treated sample) (E. coli lptD4213 (imp); [4]): 3.6 h | count ratio 24fα-modified / unmodified FtsQ, ID 2 HYTRNDDIR (FtsQ(50–276) [2]): 1.60 | count ratio 24fα-modified / unmodified FtsQ, ID 3 […](*) (FtsQ(50–276) [2]): 0.43 | count ratio 24fα-modified / unmodified FtsQ, ID 4 K/QWPDELK/[…] (FtsQ(50–276) [2]): 1.01 | count ratio 24fα-modified / unmodified FtsQ, ID 5 […](*) (FtsQ(50–276) [2]): 1.20 | count ratio 24fα-modified / unmodified FtsQ, ID 6 […]/EMGQMLAK(*) (FtsQ(50–276) [2]): 1.00 | count ratio 24fα-modified / unmodified FtsQ, ID 7 DRFTLK (FtsQ(50–276) [2]): 1.03 | count ratio 24fα-modified / unmodified FtsQ, ID 8 EAAMTAR* (FtsQ(50–276) [2]): 0.62 | count ratio 24fα-modified / unmodified FtsQ, ID 9 R/[…] (contains K208) (FtsQ(50–276) [2]): 1.13 | count ratio 24fα-modified / unmodified FtsQ, ID 10 LNLGR/GDTMK/R (contains K218) (FtsQ(50–276) [2]): 0.56 | count ratio 24fα-modified / unmodified FtsQ, ID 11 […]/R (contains K239) (FtsQ(50–276) [2]): 0.20 | count ratio 24fα-modified / unmodified FtsQ, ID 12 ISYVDLR (FtsQ(50–276) [2]): 1.24 | count ratio 24fα-modified / unmodified FtsQ, ID 13 […] (FtsQ(50–276) [2]): 2.47 | count ratio 24fα-modified / unmodified FtsQ, ID 1 LVLTGER (FtsQ(50–276) [2]; peptide 125 μM + FtsQ 50 μM overnight 37 °C): 1.17

A6NELSBTRPG6mFY (sidechain bridge or staple) [15fα, 24fα lacking seven N-terminal and two C-terminal amino acids; negative control peptide]
lowest concentration with inhibitory effect on growth (E. coli lptD4213 (imp); concentration-dependent effect on growth after 15 h, highest tested concentration 100 μM, n = 3 replicates): > 100 µM | inhibitory activity on bacterial growth (OD600) (E. coli lptD4213 (imp); inhibitor c = 25 μM, OD600 every 15 min over 22 h, n = 3 technical replicates): did not exhibit inhibitory activity | FtsB-mNG midcell localization [3]: regular accumulation of FtsB-mNG at the midcell
